# Measured values reported in patent publication EP2759295A1, “Foam cell specific Liver X Receptor (LXR) alpha agonist, SIRT1 inhibitors as well as p300 inhibitors as pharmaceutically active agents” (Max-Planck-Gesellschaft zur Förderung der Wissenschaften …, priority 2013, dated 2014).
# Where two headings read alike, the source gives them in different places.
# Columns and labels:
# [1] = target: T1, LXRα ligand binding domain (LBD) (Homo sapiens, UniProt Q13133); assay: dual luciferase reporter gene assay with LXRα ligand binding domain in HEK-293 cells; type: cell-based
# T1 construct: expressed in transfected cells; host or cells: HEK-293
# T1 sequence (Q13133 164-447): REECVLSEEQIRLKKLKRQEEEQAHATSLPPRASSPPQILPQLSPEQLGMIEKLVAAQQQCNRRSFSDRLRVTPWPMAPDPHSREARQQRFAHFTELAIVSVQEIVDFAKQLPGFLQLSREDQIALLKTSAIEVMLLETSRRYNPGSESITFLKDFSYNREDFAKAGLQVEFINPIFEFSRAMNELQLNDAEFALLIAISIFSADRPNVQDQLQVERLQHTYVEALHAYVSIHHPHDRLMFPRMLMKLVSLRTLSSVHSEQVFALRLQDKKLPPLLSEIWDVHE
# Description: The ligand binding domain (LBD) of LXRα (amino acids 164 to 447) or LXRβ (amino acids 154 to 461) was cloned into pBIND [Renilla/Amp] vector (Promega). Selection and amplification were performed in E-coli cells. Purification of the plasmids was performed with a plasmid purification kit (Qiagen). For transfection HEK-293 cells were plated in 96-well plates (TPP) at a density of 3.5 x 10^4 cells/well for 24 h. To investigate the ligand binding on LXRα ligand binding domain, 0.04 ng of renilla luciferase coding plasmide pGL4.75 (Promega), 0.04 ng of LXRα-LBD/GAL4-DBD plasmide and 80 ng of firefly luciferase coding plasmide pGL4.31 (Promega) were used in a total volume of 200 µL for each well. In LXRβ binding assay 40 ng of LXRβ-LBD/GAL4-DBD plasmide were applied in each transfection mix. Transfection was carried out for 4 h with Lipofectamine 2000 Transfection Reagent (Invitrogen) in Opti-MEM medium (Invitrogen). Ligand treatment was performed at different concentrations for 24 h. For lysis and detection dual-luciferase reporter gene assay system (Promega) and POLARstar Omega (BMG LABTECH) were used.
# [2] = test system: foam cells; assay: siRNA-mediated LXRα/β knockdown in foam cells with qPCR; type: cell-based, human; settings: 10 µM ligand for 24 h
# Description: Target specificity of ligand-dependent gene expression effects was investigated in siRNA-mediated LXRα and β-knockdown foam cells with subsequent qPCR or microarray analysis. Therefore, 2 x 10^5 THP-1 cells/well were differentiated in 24-well plate and induced to foam cells prior to knockdown as described above. Foam cells were transfected using TransIT-TKO transfection reagent (Mirus Bio), for combined knockdown with 15 nM LXRα Silencer Validated siRNA (Ambion, ID 5458) and 15 nM LXRβ Silencer Select Validated siRNA (Ambion, ID s14684) and with 30 nM LXRα or LXRβ for individual knockdowns, respectively. As control we used 30 nM Silencer Select Negative Control #1 (Ambion). Transfection was carried out for 48 h and followed by treatment with 10 µM ligand or vehicle control for 24 h.
# (§1) Total RNA isolation and purification was performed by using the RNeasy Mini Kit (QIAGEN) and RNase-Free DNase Set (QIAGEN). cDNA was generated by reverse transcription using the High Capacity cDNA Reverse Transcription Kit (Applied Biosystems). Gene expression was quantified using the SYBR Green PCR Master Mix (Applied Biosystems) and ABI 7900HT Fast Real Time PCR System (Applied Biosystems). In each reaction 0.8 ng/µL cDNA and 0.2 µM primers were used. Gene expression was calculated with the ΔΔCt-method. β-Actin was used for normalisation.
# [3] = test system: foam cells; assay: cholesterol content in foam cells (Amplex Red Cholesterol Assay); type: cell-based, human; settings: 10 µM, 48 h
# Description: (§2) THP-1 monocytes were plated out into 24-well plates (Nunc) at a density of 2 x 10^5 cells/well. After differentiation and treatment cells were lysed with 100 µL lysis buffer (PBS, 0.25 M NaCl, 1% Triton X-100). Total and free cholesterol were determined using the colorimetric enzymatic Amplex Red Cholesterol Assay Kit (Invitrogen). Triglycerides were quantified by Triglyceride Assay Kit (BioVision). For normalisation protein content was determined with Pierce 660 nm Protein Assay Reagent (Thermo Scientific).
# [4] = test system: macrophages; assay: triglyceride content in macrophages (Triglyceride Assay Kit); type: cell-based, human; settings: 10 µM, 48 h
# Description: as §2
# [5] = test system: macrophages; assay: microarray genome-wide gene expression and GSEA in macrophages; type: cell-based, human; settings: 10 µM
# Description: Microarray analyses were performed according to instructions of Illumina's TotalPrep RNA Amplification Kit followed by hybridisation on HumanHT-12 v3 or HumanHT-12 v4 Expression BeadChips (illumina). Data analysis was performed with GenomeStudio V2011.1 (illumina). Differential expression analysis was performed on background-subtracted data with cubic spline normalization and Benjamini-Hochberg FDR correction. Significant data was considered to have a detection p-value of ≤ 0.01 and differential expression p-value of ≤ 0.05 according to Illumina's t-test error model. […] Bead array data were validated by quantitative real-time PCR. The Gene Distance Matrix was conducted in Euclidean space using the MeV 4.3 software tool [Saeed A.I. et al. Biotechniques (2003), 34, 374-378]. Gene Set Enrichment Analysis (GSEA) was performed as described elsewhere [Subramanian A. et al. Proc. Natl. Acad. Sci. (2005) 102, 15545-15550] with the following parameters: 1000 gene set permutations, weighted enrichment statistics, minimal gene set size of 5, and signal-to-noise metric. Enrichment of pathways was tested using the Reactome (v3.0) and the KEGG (v3.0) database from the Molecular Signature Database (MSigDB). Heatmaps were carried out with Mayday 2.8 [Battke F. et al. BMC Bioinformatics (2012), 11, 121]. […]
# [6] = test system: THP-1 macrophages; assay: qPCR gene expression of LXRα target genes in THP-1 macrophages; type: cell-based, human; settings: 10 µM
# Description: (§3) For generating macrophages differentiation was induced by 10^-8 M Phorbol 12-myristate 13-acetate (PMA) (Sigma-Aldrich) for 48 h. Ligand treatment of macrophages was performed for further 24 h. To induce foam cell formation macrophages were treated for additional 48 h with 100 µg/mL modified human oxidized low density lipoprotein (oxLDL) obtained from Source BioScience (RP-048). Ligand treatment was performed simultaneously with foam cell formation. Cholesterol loading and treatment was controlled with Oil Red O staining (Alfa Aeser). To investigate ligand induced effects on cell proliferation of THP-1 macrophages CellTiter-Glo Luminescent Cell Viability Assay (Promega) was utilized.
# as §1
# [7] = test system: foam cells; assay: microarray genome-wide gene expression and GSEA in foam cells; type: cell-based, human; settings: 10 µM
# Description: Microarray analyses were performed according to instructions of Illumina's TotalPrep RNA Amplification Kit followed by hybridisation on HumanHT-12 v3 or HumanHT-12 v4 Expression BeadChips (illumina). Data analysis was performed with GenomeStudio […].1 (illumina). Differential expression analysis was performed on background-subtracted data with cubic spline normalization and Benjamini-Hochberg FDR correction. […] Gene expression data were submitted in MIAME-compliant form to the NCBI Gene Expression Omnibus database (GSE39079). Bead array data were validated by quantitative real-time PCR. The Gene Distance Matrix was conducted in Euclidean space using the MeV 4.3 software tool [[…]. et al. Biotechniques (2003), 34, 374-378]. Gene Set Enrichment Analysis (GSEA) was performed as described elsewhere [Subramanian A. et al. Proc. Natl. Acad. Sci. […] Enrichment of pathways was tested using the Reactome (v3.0) and the KEGG (v3.0) database from the Molecular Signature Database (MSigDB). Heatmaps were carried out with […]. et al. BMC Bioinformatics (2012), 11, 121]. For presentation of treatment effects in the heatmap, the pathway normalized enrichment score (NES) was adjusted with the appropriate FDR as follows: adjustedNES = (1-FDR) x NES.
# [8] = test system: THP-1 macrophages; assay: CellTiter-Glo viability assay in THP-1 macrophages; type: cell-based, human
# Description: as §3
# [9] = test system: foam cells; assay: triglyceride content in foam cells (Triglyceride Assay Kit); type: cell-based, human; settings: 10 µM, 48 h
# Description: as §2
# [10] = target: T2, SIRT1 (Homo sapiens, UniProt Q96EB6); assay: MALDI-TOF MS deacetylation assay; type: biochemical
# T2 construct: purchased Biomol International, Inc. / Enzo Life Sciences / BlueSky BioTech
# T2 sequence (Q96EB6 1-747): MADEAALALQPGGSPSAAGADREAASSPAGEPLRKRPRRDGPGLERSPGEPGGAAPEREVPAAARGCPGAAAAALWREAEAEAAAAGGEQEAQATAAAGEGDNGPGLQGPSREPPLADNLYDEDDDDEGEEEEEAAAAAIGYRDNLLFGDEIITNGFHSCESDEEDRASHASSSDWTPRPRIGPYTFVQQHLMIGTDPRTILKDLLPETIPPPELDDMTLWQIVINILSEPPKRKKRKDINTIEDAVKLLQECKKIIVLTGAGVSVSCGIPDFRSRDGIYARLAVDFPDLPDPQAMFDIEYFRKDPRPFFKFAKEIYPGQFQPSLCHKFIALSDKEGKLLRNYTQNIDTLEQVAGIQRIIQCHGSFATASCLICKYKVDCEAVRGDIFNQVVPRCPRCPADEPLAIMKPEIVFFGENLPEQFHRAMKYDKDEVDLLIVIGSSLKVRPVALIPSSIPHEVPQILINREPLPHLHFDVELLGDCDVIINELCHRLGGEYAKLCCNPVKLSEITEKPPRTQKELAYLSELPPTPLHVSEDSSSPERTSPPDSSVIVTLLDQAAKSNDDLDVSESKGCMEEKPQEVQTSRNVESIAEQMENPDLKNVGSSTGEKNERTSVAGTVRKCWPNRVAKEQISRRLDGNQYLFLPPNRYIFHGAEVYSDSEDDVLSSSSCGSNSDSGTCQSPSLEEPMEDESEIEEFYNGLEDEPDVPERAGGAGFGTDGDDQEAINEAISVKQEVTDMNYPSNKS
# Description: The assay was performed in a 20 µL reaction. 0.5 µM acetylated peptide and 120 µM NAD^+ in reaction buffer (50 mM Tris-acetate (pH 8), 137 mM NaCl, 2.7 mM KCI, 1 mM MgCl2, 5 mM DTT, 0.05 % BSA) were mixed with compound or DMSO (VC). Reactions were initiated by adding 10 nM of SIRT1. After incubation for 30 min at 37°C, reactions were stopped by formic acid and nicotinamide (f.c. 1% and 5 mM, respectively). Reactions were performed with histone H4 peptide and 1% DMSO unless stated otherwise. […]
# Acetylated and deacetylated peptides were mixed at different ratios in the respective buffer including stop solution and reaction components except the enzyme. Purification, preparation and MS detection were conducted in parallel to reaction samples. CCs were generated for IC50 value determination but not for the screening.
# Peptides were purified by Oasis HLB µElution Plates using a vacuum manifold [S. Sauer et al. J Chromatogr A (2004), 1049, 9-16]. Plate columns were conditioned by 70% ACN and equilibrated with 0.1% TFA. Samples were loaded, desalted by 0.1 % TFA and H2O and eluted in 70% ACN.
# For ultra thin layer (UTL), supernatant of saturated CHCA in ACN / H2O (2:1) and 0.1% TFA. was mixed with isopropanol (1:3) and was spread on a ground steel target. After solvent evaporated excess of CHCA was removed from target surface with a tissue [D. Fenyo et al. J Vis Exp (2007), 192]. The matrix used for sample preparation contained saturated CHCA in ACN / 0.1% TFA (1:2) or ACN / H2O (1:2) depending on peptide size [S. L. Cohen et al. Anal Chem (1996), 68, 31-37]. HLB eluted samples and matrix were mixed (1:4) and spotted on the UTL.
# Samples were measured automatically (AutoXecute software, Bruker Daltonik GmbH) using an ultraflex II MALDI-TOF mass spectrometer (Bruker Daltonik GmbH) in positive ion reflector mode. Laser power and detector gain were adjusted prior to every automatic run, which were performed in random walk movement.
# For assay optimization and IC50 determination, 1000 shots were accumulated in 100 satisfactory shot steps (fuzzy control). At least one peak within a defined mass range had to fulfill the following criteria for the spectra to be accumulated: Absolute (min.) intensity: 800; S/N: 15; peak width: 0.2.
# A script (Bruker Daltonik GmbH) was employed to analyze peptide peaks in a batch process (flexAnalysis software, Version 3.0, Bruker Daltonik GmbH). Percentage of de-/acetylation were calculated using the sum of the first four monoisotopic peak intensities. CC was generated by plotting experimental vs. calculated peptide acetylation. Measured sample values were interpolated with CC to determine de-/acetylation values (GraphPad Prism). When no CC was created, peak intensity ratios were generated. Verified single NP screening hits had to pass a peak ratio of ≤ 0.1 (deac/ac).
# As IC50 values were not gained at initial velocity conditions, values were corrected by a conversion factor according to Wu et al. (Table 5) [G. Wu et al. J Biomol Screen (2003), 8, 694-700].
# [11] = test system: HepG2 cells; assay: Western-Blot analysis of p53 (Lys382) acetylation in HepG2 cells; type: cell-based, human; settings: 30 µM, 16 hours, 20 µM Etoposide
# Description: HepG2 cells were seeded in 6-well plates (2.5 x 10^5 cells/well). 48 h later cells were treated with 20 µM Etoposide to induce p53 acetylation and directly afterwards with NP 1 or DMSO (VC) for 16 h. Cells were harvested and separated into cytosolic and nuclear fractions (NE-PER Nuclear and Cytoplasmic Extraction Reagents). Samples were denatured and SDS-PAGE was performed using NuPAGE Novex 4-12% Bis-Tris Gels. Proteins were blotted on nitrocellulose Hybond ECL membrane. Primary antibodies used were β-actin, p53 and acetyl-p53 (Lys382). Secondary antibodies were HRP-conjugated goat anti-rabbit IgG-HRP and goat anti-mouse IgG-HRP. Detection was performed with Western Lightning Plus-ECL solution. Membranes were stripped with Restore Plus Western Blot Stripping Buffer for 15 min.
# Densitometry was performed in GelAnalyzer 2010a, which is a software tool to quantitatively measure the optical density. It provides accurate Western-Blot analysis and helps to detect differences which are not visible by the naked eye. Log(p53-Ac/p53-total) was calculated for every sample and statistical analysis was performed.
SMILES,"Efficacy ([1]; +DMSO, reporter gene transcription vs. T09) [%]",specificity LXRα vs. LXRβ ([1]; reporter-gene assays with LXRα and LXRβ LBD),gene expression of LXRα and ABCA1 after LXRα/β knockdown [2],total and esterified cholesterol content [3],triglyceride level [4],expression of genes involved in lipid metabolism processes [5],"expression of LXRα target genes (LXRα, SREBF1, ABCA1, APOE) [6]",Lipid metabolism processes (gene set enrichment) [7],triacylglyceride biosynthesis (transcriptional regulation) [7],no cytotoxic effects / no reduction of cellular viability up to [8],triglyceride levels [9],"IC50 ([10]; Table 3, corrected values (see Table 5), read-out: IC50 values) [µM]","IC50 ([10]; corrected by conversion factor according to Wu et al., read-out: Corrected IC50) [µM]","IC50 ([10]; uncorrected, not at initial velocity conditions, read-out: Obtained IC50') [µM]",p53 acetylation in the nuclear fraction [11]
"O=S(=O)(c1ccccc1)N(CC(F)(F)F)c1ccc(C(O)(C(F)(F)F)C(F)(F)F)cc1 [T09, reference compound]",100,bound to LXRα and LXRβ with similar affinity,significant reduction of LXRα and ABCA1 expression,significant reduction of total and esterified cholesterol content,stayed unchanged,activated,increased expression of LXRα target genes,comparably up-regulated,transcriptionally induced,no cytotoxic effects,increased triglyceride levels,,,,
"COc1cc(-c2ccc(O)cc2)c(OC)c(O)c1C1=CC(=O)OC1CC(=O)O (stereo not drawn) [NP 1, 2-(3-(3,4'-dihydroxy-2,5-dimethoxybiphenyl-4-yl)-5-oxo-2,5-dihydrofuran-2-yl)acetic acid]",,,,,,,,,,,,9.7 ± 0.7,9.7 ± 0.7,13 ± 1,significant increase of p53 acetylation
